Reference: ChEMBL document CHEMBL4325868, “Design, synthesis and antitubercular activity of 4-alkoxy-triazoloquinolones able to inhibit the M. tuberculosis DNA gyrase” (Eur J Med Chem, 2019)
pIC50: −log10 of the molar value. Values after ≈ are worked out from the molar mass of the structure shown.

How the values were obtained:
[1] = Cytotoxicity against African green monkey Vero cells assessed as cell viability at 100 uM after 72 hrs by MTT assay relative to control; assay type: cell-based; conditions: chlorocebus sabaeus, read-out: Activity
[2] = tested on: Mycobacterium tuberculosis; experiment: Antitubercular activity against Mycobacterium tuberculosis H37Rv after 7 days by resazurin microtiter assay; assay type: functional; conditions: 168 h
[3] = molecular target: DNA gyrase subunit A/DNA gyrase subunit B (Mycobacterium tuberculosis (strain ATCC 25618 / H37Rv), UniProt P9WG45+P9WG47); experiment: Inhibition of Mycobacterium tuberculosis DNA gyrase assessed as reduction in supercoiling of relaxed pBR322 DNA substrate after 30 mins by ethidium bromide staining based agarose gel electrophoresis method; assay type: protein-complex assay
[4] = tested on: Staphylococcus aureus; experiment: Antibacterial activity against Staphylococcus aureus ATCC 2913 after overnight incubation by broth dilution assay; assay type: functional
[5] = tested on: Candida tropicalis; experiment: Antifungal activity against Candida tropicalis after overnight incubation by broth dilution assay; assay type: functional
[6] = tested on: Escherichia coli; experiment: Antibacterial activity against Escherichia coli ATCC 15922 after overnight incubation by broth dilution assay; assay type: functional
[7] = tested on: Candida albicans; experiment: Antifungal activity against Candida albicans after overnight incubation by broth dilution assay; assay type: functional
[8] = tested on: Salmonella typhimurium; experiment: Antibacterial activity against Salmonella typhimurium ATCC 14028 after overnight incubation by broth dilution assay; assay type: functional, Salmonella enterica subsp. enterica serovar Typhimurium; conditions: Salmonella enterica
[9] = tested on: Enterococcus faecalis; experiment: Antibacterial activity against Enterococcus faecalis ATCC 2491 after overnight incubation by broth dilution assay; assay type: functional
[10] = tested on: Mycobacterium tuberculosis; experiment: Antitubercular activity against Mycobacterium tuberculosis isolate 1535 after 7 days by resazurin microtiter assay; assay type: functional; conditions: isolate 1535, 168 h
[11] = tested on: Mycobacterium tuberculosis; experiment: Antitubercular activity against Mycobacterium tuberculosis isolate 1574 after 7 days by resazurin microtiter assay; assay type: functional; conditions: isolate 1574, 168 h
[12] = tested on: Mycobacterium tuberculosis; experiment: Antitubercular activity against Mycobacterium tuberculosis isolate 231 after 7 days by resazurin microtiter assay; assay type: functional; conditions: isolate 231, 168 h
[13] = tested on: Mycobacterium tuberculosis; experiment: Antitubercular activity against Mycobacterium tuberculosis isolate 1567 after 7 days by resazurin microtiter assay; assay type: functional; conditions: isolate 1567, 168 h
[14] = tested on: Mycobacterium tuberculosis; experiment: Antitubercular activity against Mycobacterium tuberculosis isolate 147 after 7 days by resazurin microtiter assay; assay type: functional; conditions: isolate 147, 168 h
[15] = tested on: Mycobacterium tuberculosis; experiment: Antitubercular activity against Mycobacterium tuberculosis isolate 1657 after 7 days by resazurin microtiter assay; assay type: functional; conditions: isolate 1657, 168 h
[16] = tested on: Mycobacterium tuberculosis; experiment: Antitubercular activity against Mycobacterium tuberculosis isolate 1777 after 7 days by resazurin microtiter assay; assay type: functional; conditions: isolate 1777, 168 h

Chain of DNA gyrase subunit A/DNA gyrase subunit B (P9WG45 whole entry): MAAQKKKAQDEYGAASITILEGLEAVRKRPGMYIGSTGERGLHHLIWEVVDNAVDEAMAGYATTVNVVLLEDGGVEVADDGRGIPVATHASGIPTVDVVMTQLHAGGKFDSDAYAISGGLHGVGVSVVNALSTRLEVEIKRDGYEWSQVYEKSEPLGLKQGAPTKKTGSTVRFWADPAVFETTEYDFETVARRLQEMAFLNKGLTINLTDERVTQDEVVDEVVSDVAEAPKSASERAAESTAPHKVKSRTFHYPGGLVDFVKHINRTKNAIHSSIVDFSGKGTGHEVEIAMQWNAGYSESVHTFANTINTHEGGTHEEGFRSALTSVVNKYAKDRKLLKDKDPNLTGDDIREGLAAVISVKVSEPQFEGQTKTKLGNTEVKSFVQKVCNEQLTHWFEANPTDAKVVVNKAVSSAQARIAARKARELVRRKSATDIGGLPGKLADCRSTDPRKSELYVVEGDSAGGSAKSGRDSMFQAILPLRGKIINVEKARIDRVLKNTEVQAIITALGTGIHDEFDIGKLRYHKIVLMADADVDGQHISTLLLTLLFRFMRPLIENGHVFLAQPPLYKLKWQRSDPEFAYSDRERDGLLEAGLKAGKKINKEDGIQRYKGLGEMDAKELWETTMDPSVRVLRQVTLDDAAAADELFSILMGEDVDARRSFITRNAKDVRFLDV
Chain of DNA gyrase subunit A/DNA gyrase subunit B (P9WG47 whole entry): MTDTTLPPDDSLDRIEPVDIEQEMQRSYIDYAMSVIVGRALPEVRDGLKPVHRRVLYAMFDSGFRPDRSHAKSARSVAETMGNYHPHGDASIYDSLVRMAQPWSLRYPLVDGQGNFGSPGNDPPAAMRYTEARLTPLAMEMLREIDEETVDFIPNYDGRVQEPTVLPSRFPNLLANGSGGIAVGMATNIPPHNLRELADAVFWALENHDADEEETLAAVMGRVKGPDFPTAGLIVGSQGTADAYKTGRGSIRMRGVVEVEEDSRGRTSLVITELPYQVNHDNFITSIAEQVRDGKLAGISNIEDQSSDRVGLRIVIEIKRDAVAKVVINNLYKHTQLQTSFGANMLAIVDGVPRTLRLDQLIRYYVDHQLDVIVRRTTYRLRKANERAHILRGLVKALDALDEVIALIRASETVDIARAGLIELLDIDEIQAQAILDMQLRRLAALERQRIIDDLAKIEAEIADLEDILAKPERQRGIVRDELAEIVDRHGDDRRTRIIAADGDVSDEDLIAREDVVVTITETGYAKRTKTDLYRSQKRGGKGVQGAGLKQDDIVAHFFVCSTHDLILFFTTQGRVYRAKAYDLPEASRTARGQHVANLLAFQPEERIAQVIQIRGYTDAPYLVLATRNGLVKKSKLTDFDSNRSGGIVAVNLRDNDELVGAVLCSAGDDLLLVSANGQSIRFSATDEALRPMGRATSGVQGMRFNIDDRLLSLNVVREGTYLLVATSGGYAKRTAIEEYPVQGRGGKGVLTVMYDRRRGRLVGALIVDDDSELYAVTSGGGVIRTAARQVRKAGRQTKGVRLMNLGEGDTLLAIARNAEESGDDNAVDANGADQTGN

| Structure (SMILES) | viability at 72 h, 100 µM [1] | MIC [2] | other results |
| --- | --- | --- | --- |
| CCn1cc(C(=O)O)c(=O)c2cc(OC)c3nn(C)nc3c21 | 94.2% | > 100 µM |  |
| COc1cc2c(=O)c(C(=O)O)c[nH]c2c2nnn(C)c12 | 90.2% | > 100 µM | pIC50 [3]: 4.04 |
| CCn1cc(C(=O)O)c(=O)c2cc(F)c3c(nnn3C)c21 | 95.1% | > 100 µM |  |
| CCOC(=O)c1cnc2c(cc(OC)c3nnn(C)c32)c1OC | 80.8% | > 100 µM |  |
| Cn1cc(C(=O)O)c(=O)c2cc([N+](=O)[O-])c3c(nnn3C)c21 | 88.8% | > 100 µM |  |
| CCOc1c(C(=O)O)cnc2c1cc(OC)c1nnn(C)c12 | 83.6% | > 100 µM |  |
| CCSc1cc2c(=O)c(C(=O)O)cn(C)c2c2nnn(C)c12 | 87.7% | 50.3 µM (≈ 16 µg/mL) |  |
| Cn1cc(C(=O)O)c(=O)c2cc(F)c3c(nnn3C)c21 | 81.2% | 57.9 µM (≈ 16 µg/mL) |  |
| CCn1cc(C(=O)O)c(=O)c2cc(OC)c3c(nnn3C)c21 | 90.1% | 52.9 µM (≈ 16 µg/mL) |  |
| COC(=O)c1cn(C)c2c(ccc3c2nnn3C)c1=O | 91.2% | > 100 µM |  |
| COc1cc2c(=O)c(C(=O)O)c[nH]c2c2c1nnn2C | 92.9% | > 100 µM |  |
| CCOC(=O)c1cnc2c(cc(OC)c3nnn(C)c32)c1OCC | 85.4% | > 100 µM |  |
| COc1c(C(=O)O)cnc2c1cc(OC)c1nnn(C)c12 | 85.7% | > 100 µM |  |
| CCOc1cc2c(=O)c(C(=O)O)cn(C)c2c2nnn(C)c12 | 94.3% | 6.6 µM (≈ 2 µg/mL) | MIC [4]: > 100 µM; pIC50 [3]: 4.55; MIC [5]: > 100 µM; MIC [6]: > 100 µM; MIC [7]: > 100 µM; MIC [8]: > 100 µM; MIC [9]: > 100 µM |
| CCOc1cc2c(=O)c(C(=O)O)cn(CC)c2c2nnn(C)c12 | 92.1% | 25.3 µM (≈ 8 µg/mL) |  |
| CCOC(=O)c1cn(C)c2c(cc(OC)c3c2nnn3C)c1=O | 92% | > 100 µM |  |
| CCOC(=O)c1cn(CC)c2c(cc(OC)c3c2nnn3C)c1=O | 84.4% | > 100 µM |  |
| COc1cc2c(=O)c(C(=O)O)cn(C)c2c2nnn(C)c12 | 90.4% | 6.9 µM (≈ 1.99 µg/mL) | MIC [4]: > 100 µM; MIC [10]: 16 µM (≈ 4.61 µg/mL); pIC50 [3]: 4.56; MIC [11]: 32 µM (≈ 9.22 µg/mL); MIC [5]: > 100 µM; MIC [12]: 4 µM (≈ 1.15 µg/mL); MIC [13]: 32 µM (≈ 9.22 µg/mL); MIC [14]: 8 µM (≈ 2.31 µg/mL); MIC [15]: 4 µM (≈ 1.15 µg/mL); MIC [6]: > 100 µM; MIC [7]: > 100 µM; MIC [8]: > 100 µM; MIC [16]: 8 µM (≈ 2.31 µg/mL); MIC [9]: > 100 µM |
| CCOC(=O)c1cn(CC)c2c(cc(OC)c3nn(C)nc32)c1=O | 79.3% | > 100 µM |  |
| CCOC(=O)c1cn(CC)c2c(cc(OCC)c3c2nnn3C)c1=O | 95.1% | > 100 µM |  |
| COc1cc2c(=O)c(C(=O)O)cn(C)c2c2nn(C)nc12 | 89.5% | 27.8 µM (≈ 8.01 µg/mL) |  |
| O=C(O)c1cn(C2CC2)c2cc(N3CCNCC3)c(F)cc2c1=O [CIPROFLOXACIN] | 95.2% | 1.5 µM (≈ 0.497 µg/mL) |  |
